The target of the assay is T1, mTLR7 (Mus musculus, UniProt P58681).
T1 construct: Splenocytes isolated from male C57/BL6 mice; from tissue; host or cells: splenocytes from the spleen of male C57BL/6 mice
T1 sequence (P58681 27-1050): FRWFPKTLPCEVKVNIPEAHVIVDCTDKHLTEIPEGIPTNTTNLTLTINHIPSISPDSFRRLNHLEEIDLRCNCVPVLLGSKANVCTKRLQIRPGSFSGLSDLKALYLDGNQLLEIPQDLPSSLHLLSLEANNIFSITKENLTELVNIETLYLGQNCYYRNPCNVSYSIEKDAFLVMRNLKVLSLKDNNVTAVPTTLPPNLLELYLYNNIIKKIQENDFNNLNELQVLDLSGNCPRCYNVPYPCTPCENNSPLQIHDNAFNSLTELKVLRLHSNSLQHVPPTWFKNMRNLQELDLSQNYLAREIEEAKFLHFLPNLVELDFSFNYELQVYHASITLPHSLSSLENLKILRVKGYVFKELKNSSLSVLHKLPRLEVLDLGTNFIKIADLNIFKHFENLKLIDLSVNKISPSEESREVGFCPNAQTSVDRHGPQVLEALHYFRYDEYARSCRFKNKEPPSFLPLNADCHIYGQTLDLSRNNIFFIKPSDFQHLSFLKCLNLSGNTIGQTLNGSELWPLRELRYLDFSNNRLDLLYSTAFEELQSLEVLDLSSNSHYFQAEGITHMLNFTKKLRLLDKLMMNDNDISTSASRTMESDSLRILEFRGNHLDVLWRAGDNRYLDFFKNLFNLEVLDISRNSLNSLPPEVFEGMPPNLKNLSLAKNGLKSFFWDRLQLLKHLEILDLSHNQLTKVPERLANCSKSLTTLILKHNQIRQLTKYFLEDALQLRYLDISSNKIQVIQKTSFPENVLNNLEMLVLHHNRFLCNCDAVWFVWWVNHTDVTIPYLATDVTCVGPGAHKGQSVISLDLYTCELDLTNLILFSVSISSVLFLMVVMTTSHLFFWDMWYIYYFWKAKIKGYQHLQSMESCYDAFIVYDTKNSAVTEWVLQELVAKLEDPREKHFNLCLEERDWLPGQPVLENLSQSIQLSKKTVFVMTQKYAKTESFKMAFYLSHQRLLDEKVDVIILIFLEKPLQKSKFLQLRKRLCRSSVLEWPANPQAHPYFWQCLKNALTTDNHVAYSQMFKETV
Description: mTLR7 antagonism (IL-6 and TNF-α release assay) in mouse splenocytes, R0006/DOTAP stimulated. Format: cell-based. The text has this: mTLR9 and mTLR7 Antagonism (Cytokine Release Assay) in Mouse Splenocytes
TLR7 ligand R0006 (IDT, 5′-rU*rU*rG*rU*rU*rG*rU*rU*rG*rU*rU*rG*rU*rU*rG*rU*rU*rG*rU*rU-3′ (SEQ ID NO:1)), Liposomal transfection reagent—DOTAP (Roche, Cat. No. 11202375001), TLR9 ligand CpG ODN2006 (Sequence: T*C*G*T*C*G*T*T*T*T*G*T*C*G*T*T*T*T*G*T*C*G*T*T; *=phosphorothioate (SEQ ID NO:2)) DMSO (Sigma, D2650), RPMI Powder (Sigma, R6504), Fetal Bovine Serum (Gibco, 10270), Dulbecco's Phosphate Buffered Saline (Sigma, D1408), 96 well plate (Flat bottom, Costar 3599), ELISA kit for IL-6 (EBioscience, 88-7064-77 and TNFa (EBioscience, 88-7346-88), MACS Buffer (AutoMACS Rinsing Solution (Miltenyl Biotec, 130-091-222)+0.05% BSA), RBC lysis buffer (0.85% NH4Cl), 40 μm cell strainer (BD Falcon, 352340) Method: A. Isolation of Mouse Splenocytes
Mouse spleen was isolated from C57BL6 mouse and stored in 1× chilled PBS buffer until further processed. Spleen was transferred to a sterile petriplate and chopped in to 5-6 pieces in presence of MACS buffer (100 μl) with the help of fresh surgical blade and crushed with flat plunger of a sterile syringe. A uniform suspension was prepared by passing cells through a 40 μm cell strainer. Cells were centrifuged at 450×g for 5 minutes at 4° C., supernatant was discarded and pellet dislodged gently, resuspended in 2 ml of pre-warmed (37° C.) RBC lysis buffer at room temperature with continuous gentle mixing with 1 ml pipette. Lysis buffer was neutralized with 12 ml of chilled MACS buffer and cells were passed through 40 μm cell strainer. Cell suspension was collected in 15 ml MACS buffer and centrifuged at 450×g for 5 minutes at 4° C. Pellet was resuspended in 15 ml MACS buffer and centrifuged at 400×g for 5 minutes. Cells were resuspended in 10 ml of RPMI complete medium and viability was estimated by Trypan blue method.
mTLR7 Antagonism (IL-6 and TNF-α Release Assay):
1 mg/ml stock of R0006 was prepared in sterile, endotoxin-free water. R0006 stock was diluted 10 fold with DOTAP and incubated for 30 minutes to form liposome complex (100 μg/ml of R0006). This complex was further diluted 10 fold with incomplete RPMI media (10 μg/ml of R0006) to achieve the final agonist concentration of 1 μg/ml. DOTAP alone was diluted 10 fold in incomplete RPMI media. NCEs were added in a concentration range of 30 μM to 1 nM in respective wells of assay plate, assay medium containing 0.3% DMSO were added to control wells. 0.2 million splenocytes were added to all the wells and incubated at 37° C. in 5% CO2 incubator for 30 minutes. 1 μg/ml of respective agonist was added to all the wells except those were assigned as negative controls and mixed thoroughly. DOTAP was added to negative control wells and incubated overnight at 37° C./5% CO2. The plate was centrifuged at 450×g for 5 minutes at room temperature and the supernatant was collected. ELISA was performed as per manufacturer's protocol. S/B Ratio, % Activity and % Inhibition was calculated using MS Excel. IC50 and inhibition curve was generated using Graph Pad Prism.

Setting [1] is: 1 μM, TNF-α release, mouse splenocytes, read-out: mTLR7 inhibitory activity (% at 1 μM), TNF-α.
Setting [2] is: 1 μM, IL-6 release, mouse splenocytes, read-out: mTLR7 inhibitory activity (% at 1 μM), IL-6.

Structures are written as SMILES. Read-outs that look alike come from different tables or passages of the source.

Consider `CN1CCN(c2ccc(-c3nccc4c3cc(CN3CCOCC3)n4C)cc2)CC1` [Example A9, 4-[[1-methyl-4-[4-(4-methylpiperazin-1-yl)phenyl]pyrrolo[3,2-c]pyridin-2-yl]methyl] morpholine], for which, under setting [1], the inhibition at 1 µM is 100%.

On to `CCN1CCN(c2ccc(-c3nc(C)c(C)c4[nH]c(CN5CCOCC5)cc34)cc2)CC1` [Example A38, 4-[[4-[4-(4-ethylpiperazin-1-yl)phenyl]-6,7-dimethyl-1H-pyrrolo[3,2-c]pyridin-2-yl]methyl] morpholine], for which the inhibition at 1 µM runs as follows: under setting [2], 100%; under setting [1], 100%.

As for `Cc1cc2[nH]c(CCN3CCOCC3)cc2c(-c2ccc(N3CCN(C)CC3)cc2)n1` [Example B4, 4-[2-[6-methyl-4-[4-(4-methylpiperazin-1-yl)phenyl]-1H-pyrrolo[3,2-c]pyridin-2-yl]ethyl]morpholine], the inhibition at 1 µM under setting [1] was determined as 100%.

On to `CC(C)N1CCN(c2ccc(-c3nccc4[nH]c(CN5CCC(F)CC5)cc34)cc2)CC1` [Example A24, 2-[(4-fluoro-1-piperidyl)methyl]-4-[4-(4-isopropylpiperazin-yl)phenyl]-1H-pyrrolo[3,2-c] pyridine], for which the inhibition at 1 µM under setting [1] is 100%.

`CC(C)N1CCN(c2ccc(-c3nccc4[nH]c(CN5CCOCC5)cc34)cn2)CC1` [Example A53, 4-[[4-[6-(4-isopropylpiperazin-1-yl)-3-pyridyl]-1H-pyrrolo[3,2-c]pyridin-2-yl]methyl]morpholine]: the inhibition at 1 µM runs as follows: under setting [2], 100%; under setting [1], 83%.

With `Cc1nc(-c2ccc(N3CCN(C(C)C)CC3)cc2)c2cc(CCN3CCCC3)[nH]c2c1C` [Example B10, 4-[4-(4-isopropylpiperazin-1-yl)phenyl]-6,7-dimethyl-2-(2-pyrrolidin-1-ylethyl)-1H-pyrrolo[3,2-c]pyridine], the inhibition at 1 µM under setting [2] is 100% and the inhibition at 1 µM under setting [1] worked out at 100%.

On to `Cc1cc2[nH]c(Cn3cccn3)cc2c(-c2ccc(N3CCN(C(C)C)CC3)cc2)n1` [Example A28, 4-[4-(4-isopropylpiperazin-1-yl)phenyl]-6-methyl-2-(pyrazol-1-ylmethyl)-1H-pyrrolo[3,2-c]pyridine], for which the inhibition at 1 µM under setting [2] was 88% and the inhibition at 1 µM under setting [1] stood at 100%.

Regarding `Cc1cc2c(cc(CCCN3CCOCC3)n2C)c(-c2ccc(N3CCN(C(C)C)CC3)cc2)n1` [Example C6, 4-[3-[4-[4-(4-isopropylpiperazin-1-yl)phenyl]-1,6-dimethyl-pyrrolo[3,2-c]pyridin-2-yl]propyl]morpholine], the inhibition at 1 µM reads like this: under setting [2], 100%; under setting [1], 100%.

Take `CC(C)N1CCN(c2ccc(-c3nccc4[nH]c(CN5CC(O)C5)cc34)cc2)CC1` [Example A72, 1-[[4-[4-(4-isopropylpiperazin-1-yl)phenyl]-1H-pyrrolo[3,2-c]pyridin-2-yl]methyl]azetidin-3-ol]: the inhibition at 1 µM amounted to 0% under setting [2] and 14% under setting [1].

With `CC(C)N1CCC(c2ccc(-c3nccc4[nH]c(CN5CCOCC5)cc34)cn2)CC1` [Example A64, 4-[[4-[6-(1-isopropyl-4-piperidyl)-3-pyridyl]-1H-pyrrolo[3,2-c]pyridin-2-yl]methyl]morpholine], the inhibition at 1 µM under setting [2] worked out at 13% and the inhibition at 1 µM under setting [1] came out at 4%.

Turning to `CC(C)N1CCN(c2ccc(-c3nccc4[nH]c(CN5CCCCC5)cc34)cc2)CC1` [Example A17, 4-[4-(4-isopropylpiperazin-1-yl)phenyl]-2-(1-piperidylmethyl)-1H-pyrrolo[3,2-c]pyridine], the inhibition at 1 µM under setting [2] came out at 100% and the inhibition at 1 µM under setting [1] was found to be 100%.

As for `CC(C)N1CCN(c2ccc(-c3nc(C4CC4)cc4[nH]c(CN5CCOCC5)cc34)cc2)CC1` [Example A33, 4-[[6-cyclopropyl-4-[4-(4-isopropylpiperazin-1-yl)phenyl]-1H-pyrrolo[3,2-c]pyridin-2-yl]methyl] morpholine], the inhibition at 1 µM under setting [1] turned out to be 83%.

Consider `CC(C)N1CCN(c2ccc(-c3nccc4c3cc(CN3CCOCC3)n4C)cc2)CC1` [Example A8, 4-[[4-[4-(4-isopropylpiperazin-1-yl)phenyl]-1-methyl-pyrrolo[3,2-c]pyridin-2-yl]methyl] morpholine], for which the inhibition at 1 µM under setting [2] amounted to 100% and the inhibition at 1 µM under setting [1] came out at 100%.

Take `Cc1cc2c(cc(CCN3CCOCC3)n2C)c(-c2ccc(C3CCN(C(C)C)CC3)cc2)n1` [Example B31, 4-[2-[4-[4-(1-isopropyl-4-piperidyl)phenyl]-1,6-dimethyl-pyrrolo[3,2-c]pyridin-2-yl]ethyl]morpholine]: the inhibition at 1 µM reads like this: under setting [2], 100%; under setting [1], 100%.

Turning to `Cc1nc(-c2ccc(N3CCN(C)CC3)cc2)c2cc(CN3CCOCC3)[nH]c2c1C` [Example A37, 4-[[6,7-dimethyl-4-[4-(4-methylpiperazin-1-yl)phenyl]-1H-pyrrolo[3,2-c]pyridin-2-yl]methyl] morpholine], the inhibition at 1 µM under setting [1] was 100%.

Regarding `CC(C)N1CCN(c2ccc(-c3nccc4[nH]c(CN5CCC(O)CC5)cc34)cc2)CC1` [Example A12, 1-[[4-[4-(4-isopropylpiperazin-1-yl)phenyl]-1H-pyrrolo[3,2-c]pyridin-2-yl]methyl] piperidin-4-ol], the inhibition at 1 µM under setting [2] worked out at 80% and the inhibition at 1 µM under setting [1] was 45%.

Turning to `CC(C)N1CCN(c2ccc(-c3nccc4[nH]c(C(=O)N5CCOCC5)cc34)cc2)CC1` [Example A82, [4-[4-(4-isopropylpiperazin-1-yl)phenyl]-1H-pyrrolo[3,2-c]pyridin-2-yl]-morpholino-methanone], the inhibition at 1 µM runs as follows: (read-out: mTLR7 inhibitory activity (% at 1 μM), IL-6) 86%; (read-out: mTLR7 inhibitory activity (% at 1 μM), TNF-α) 24%.

As to `CC(C)N1CCN(c2ccc(-c3nccc4[nH]c(CN5CCOCC5)cc34)cc2)CC1` [Example A1, 4-[[4-[4-(4-isopropylpiperazin-1-yl)phenyl]-1H-pyrrolo[3,2-c]pyridin-2-yl]methyl]morpholine], the inhibition at 1 µM is, setting by setting: under setting [2], 97%; under setting [1], 100%.
